Laboratory results from ChEMBL document CHEMBL4619792, “Amidate Prodrugs of O-2-Alkylated Pyrimidine Acyclic Nucleosides Display Potent Anti-Herpesvirus Activity” (ACS Med Chem Lett, 2020).

Assays:
Cytomegalovirus [1] = experiment: Antiviral activity against Cytomegalovirus AD169 infected in human HEL cells assessed as reduction in virus-induced cytopathogenicity measured after 6 to 7 days; type: functional, organism-based; settings: Human betaherpesvirus 5, AD169, HEL
Cytomegalovirus [2] = experiment: Antiviral activity against Cytomegalovirus Davis infected in human HEL cells assessed as reduction in virus-induced cytopathogenicity measured after 6 to 7 days; type: functional, organism-based; settings: Human betaherpesvirus 5, Davis
Human alphaherpesvirus 3 [3] = experiment: Antiviral activity against thymidine kinase positive Varicella zoster virus OKA infected in human HEL cells assessed as reduction in plaque formation measured after 5 days; type: functional, organism-based; settings: Human alphaherpesvirus 3, OKA, 120 h
Human alphaherpesvirus 3 [4] = experiment: Antiviral activity against thymidine kinase deficient Varicella zoster virus 07-1 infected in human HEL cells assessed as reduction in plaque formation measured after 5 days; type: functional, organism-based; settings: Human alphaherpesvirus 3, 07-1, HEL, 120 h
[5] = Cytotoxicity against human HEL cells assessed as minimum cytotoxic concentration for change in cellular morphology incubated for 3 days by microscopic analysis; type: cell-based
[6] = Cytotoxicity against human HEL cells assessed as reduction in cell proliferation incubated for 3 days by Coulter counter method; type: cell-based
[7] = system: Human immunodeficiency virus; experiment: Antiviral activity against HIV infected in human CEM cells assessed as inhibition of virus induced cytopathicity incubated for 4 days by microscopic analysis; type: functional, organism-based; settings: ccrf-cem
[8] = system: Moloney murine sarcoma virus; experiment: Antiviral activity against Moloney murine sarcoma virus infected in murine C3H/3T3 embryo fibroblasts assessed as inhibition of virus-induced transformation incubated for 6 days by microscopic analysis; type: functional, organism-based
Hepatitis B virus = experiment: Antiviral activity against Hepatitis B virus ayw1 infected in human HepG2.2.15 cells assessed as reduction in virus DNA replication measured after 6 days by qRT-PCR analysis; type: functional, organism-based; settings: ayw1, HepG2 2.2.15, 144 h
[9] = Selectivity index, ratio of CC50 for human HEL cells to EC50 for antiviral activity against Cytomegalovirus AD169 infected in human HEL cells; type: toxicity, cell-based; settings: read-out: Ratio CC50/EC50
[10] = Selectivity index, ratio of CC50 for human HEL cells to EC50 for antiviral activity against Cytomegalovirus Davis infected in human HEL cells; type: toxicity, cell-based; settings: read-out: Ratio CC50/EC50
[11] = Selectivity index, ratio of CC50 for human HEL cells to EC50 for antiviral activity against thymidine kinase positive Varicella zoster virus OKA infected in human HEL cells; type: toxicity, cell-based; settings: read-out: Ratio CC50/EC50
[12] = Selectivity index, ratio of CC50 for human HEL cells to EC50 for antiviral activity against thymidine kinase deficient Varicella zoster virus 07-1 infected in human HEL cells; type: toxicity, cell-based; settings: read-out: Ratio CC50/EC50

EC50 [7] [µM]	Compound	EC50 (Cytomegalovirus [1]) [µM]	EC50 (Cytomegalovirus [2]) [µM]	EC50 (Human alphaherpesvirus 3 [3]) [µM]	EC50 (Human alphaherpesvirus 3 [4]) [µM]	MCC at 72 h [5] [µM]	CC50 at 72 h [6] [µM]	EC50 [8] [µM]	EC50 (Hepatitis B virus) [µM]	selectivity ratio [9]	selectivity ratio [10]	selectivity ratio [11]	selectivity ratio [12]
–	CCCCCOC(=O)[C@@H](NP1(=O)CO[C@@H](COc2nccc(N)n2)CO1)C(C)C (mixture of isomers)	> 100	> 100	> 100	> 100	> 100	–	–	–	–	–	–	–
–	Nc1ccnc(OC[C@H](CF)OCP(=O)(O)O)n1	2.36	0.8	3.79	25.3	> 100	> 100	–	–	–	–	–	–
–	Nc1nc2c(ncn2COC(CO)CO)c(=O)[nH]1 [GANCICLOVIR]	13	4.44	–	–	> 394	> 394	–	–	–	–	–	–
0.16 to 0.43	Cc1c(N)nc(N)nc1OCCOCP(=O)(O)O	–	–	–	–	–	–	0.16 to 0.43	–	–	–	–	–
–	CCCCCOC(=O)[C@@H](NP(=O)(CO[C@@H](CF)COc1nccc(N)n1)Oc1ccccc1)C(C)C (mixture of isomers)	0.26	0.097	0.36	0.18	> 100	79.3	–	2.1 to 8.71	220 to 818	220 to 818	220 to 818	220 to 818
–	Nc1nc2c(ncn2COCCO)c(=O)[nH]1 [ACYCLOVIR]	–	–	–	–	> 444	> 444	–	–	–	–	–	–
–	CCCCCOC(=O)[C@@H](NP(=O)(CO[C@@H](C)COc1ncc(F)c(N)n1)Oc1ccccc1)C(C)C (mixture of isomers)	> 100	> 100	> 100	> 100	> 100	–	–	–	–	–	–	–
–	O=c1[nH]c(=O)n([C@H]2C[C@H](O)[C@@H](CO)O2)cc1/C=C/Br [BRIVUDINE]	–	–	0.089	0.18	> 300	> 300	–	–	–	–	–	–
–	CCCCOC(=O)[C@@H](NP(=O)(COC(C)COc1nccc(N)n1)Oc1ccccc1)C(C)C (some centres undefined)	> 100	> 100	> 100	> 100	> 100	–	–	–	–	–	–	–
–	CCCCCOC(=O)[C@@H](NP1(=O)CO[C@H](COc2ncc(F)c(N)n2)CO1)C(C)C (mixture of isomers)	> 100	> 100	> 100	> 100	> 100	–	–	–	–	–	–	–
–	CCCCCOC(=O)[C@@H](NP1(=O)CO[C@@H](COc2ncc(F)c(N)n2)CO1)C(C)C (mixture of isomers)	> 100	> 100	> 100	> 100	> 100	–	–	–	–	–	–	–
–	Nc1ccnc(OC[C@@H](CF)OCP(=O)(O)O)n1 (mixture of isomers)	> 100	> 100	> 100	> 100	> 100	> 100	–	–	–	–	–	–
–	CCCCCOC(=O)[C@@H](NP(=O)(CO[C@H](C)COc1nccc(N)n1)Oc1ccccc1)C(C)C (mixture of isomers)	> 100	> 100	> 100	> 100	> 100	–	–	–	–	–	–	–
–	CCCCCOC(=O)[C@@H](NP(=O)(CO[C@H](CF)COc1nccc(N)n1)Oc1ccccc1)C(C)C (mixture of isomers)	> 100	7.61	38.6	35.9	> 100	–	–	–	–	–	–	–
–	Nc1ccn(C[C@@H](CO)OCP(=O)(O)O)c(=O)n1 [CIDOFOVIR]	1.74	0.94	–	–	> 317	> 317	–	–	–	–	–	–
–	CCCCCOC(=O)C[C@H](NP(=O)(CO[C@@H](CF)COc1nccc(N)n1)Oc1ccccc1)C(=O)OCCCCC (mixture of isomers)	0.54	0.094	0.36	0.098	> 100	51.8	–	2.1 to 8.71	96 to 551	96 to 551	96 to 551	96 to 551
–	CCCCCOC(=O)[C@@H](NP(=O)(CO[C@@H](C)COc1nccc(N)n1)Oc1ccccc1)C(C)C (mixture of isomers)	> 100	> 100	> 100	> 100	> 100	–	–	–	–	–	–	–
–	CCCCCOC(=O)C[C@H](NP(=O)(CO[C@H](CF)COc1nccc(N)n1)Oc1ccccc1)C(=O)OCCCCC (mixture of isomers)	62.8	48.2	38.2	24.7	> 100	> 100	–	–	–	–	–	–
–	CCCCCOC(=O)[C@@H](NP(=O)(CO[C@H](C)COc1ncc(F)c(N)n1)Oc1ccccc1)C(C)C (mixture of isomers)	> 100	> 100	> 100	> 100	> 100	–	–	–	–	–	–	–
–	CCCCCOC(=O)[C@@H](NP(=O)(CO[C@@H](CF)COc1ncc(F)c(N)n1)Oc1ccccc1)C(C)C (mixture of isomers)	11.2	4.7	6.73	2.94	> 100	> 100	–	2.1 to 8.71	–	–	–	–
–	CCCCCOC(=O)[C@@H](NP1(=O)CO[C@H](COc2nccc(N)n2)CO1)C(C)C (mixture of isomers)	14	4.76	53.6	35.7	> 100	> 100	–	–	–	–	–	–
–	CCCCCOC(=O)[C@@H](NP(=O)(CO[C@H](CF)COc1ncc(F)c(N)n1)Oc1ccccc1)C(C)C (mixture of isomers)	> 100	> 100	> 100	> 100	> 100	–	–	–	–	–	–	–
